Reference: PubChem BioAssay (NCI)
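Growth conditions: 96-well plates. Treatment: test compound, 48 hours, 5 concentrations. Analysis: linear interpolation between bracketing concentrations; unreached endpoints set to highest concentration. TGI marks complete inhibition of growth.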

Columns and labels:
Assay in all cases: NCI tumour cell line growth inhibition, 48 h
[1] = tested on: MDA-MB-231 breast
[2] = tested on: OVCAR-3 ovarian
[3] = tested on: SF-295 CNS
[4] = tested on: NCI-H23 lung
[5] = tested on: SK-OV-3 ovarian
[6] = tested on: HCT-116 colon
[7] = tested on: A549 NSCLC
[8] = tested on: NCI-H226 lung
[9] = tested on: M14 melanoma
[10] = tested on: UACC-62 melanoma
[11] = tested on: SK-MEL-5 melanoma
[12] = tested on: SW-620 colon
[13] = tested on: KM12 colon
[14] = tested on: SR leukemia
[15] = tested on: SF-539 CNS
[16] = tested on: DU-145 prostate
[17] = tested on: OVCAR-5 ovarian
[18] = tested on: HT29 colon
[19] = tested on: SK-MEL-28 melanoma
[20] = tested on: K-562 leukemia
[21] = tested on: NCI-H460 lung
[22] = tested on: BT-549 breast
[23] = tested on: UO-31 renal
[24] = tested on: HL-60(TB) leukemia
[25] = tested on: MDA-MB-435
[26] = tested on: HCC-2998 colon
[27] = tested on: LOX IMVI melanoma
[28] = tested on: OVCAR-4 ovarian
[29] = tested on: MCF7 breast
[30] = tested on: MDA-N
[31] = tested on: UACC-257 melanoma
[32] = tested on: EKVX NSCLC
[33] = tested on: SNB-19 CNS
[34] = tested on: NCI/ADR-RES ovarian
[35] = tested on: HOP-92 NSCLC
[36] = tested on: RXF 393 renal
[37] = tested on: SN12C renal
[38] = tested on: MOLT-4 leukemia
[39] = tested on: ACHN renal
[40] = tested on: SNB-75 CNS
[41] = tested on: COLO 205 colon
[42] = tested on: IGROV1 ovarian
[43] = tested on: HCT-15 colon
[44] = tested on: PC-3 prostate
[45] = tested on: RPMI-8226 leukemia
[46] = tested on: HS 578T breast
[47] = tested on: SK-MEL-2 melanoma
[48] = tested on: CCRF-CEM leukemia
[49] = tested on: 786-0 renal
[50] = tested on: SF-268 CNS
[51] = tested on: TK-10 renal
[52] = tested on: U251 CNS
[53] = tested on: CAKI-1 renal
[54] = tested on: HOP-62 NSCLC
[55] = tested on: OVCAR-8 ovarian
[56] = tested on: T-47D breast
[57] = tested on: MALME-3M melanoma
[58] = tested on: NCI-H522 lung
[59] = tested on: A498 renal

CCCCNC(=O)OCCN=c1c2ccccc2ccc2ccccc12
TGI [1]: > 100 µM
TGI [2]: > 100 µM
TGI [3]: > 100 µM
TGI [4]: > 100 µM
TGI [5]: > 100 µM
TGI [6]: > 100 µM
TGI [7]: > 100 µM
TGI [8]: > 100 µM
TGI [9]: > 100 µM
TGI [10]: > 100 µM
TGI [11]: > 100 µM
TGI [12]: > 100 µM
TGI [13]: > 100 µM
TGI [14]: > 100 µM
TGI [15]: > 100 µM
TGI [16]: > 100 µM
TGI [17]: > 100 µM
TGI [18]: > 100 µM
TGI [19]: > 100 µM
TGI [20]: > 100 µM
TGI [21]: > 100 µM
TGI [22]: > 100 µM
TGI [23]: > 100 µM
TGI [24]: > 100 µM
TGI [25]: > 100 µM
TGI [26]: > 100 µM
TGI [27]: > 100 µM
TGI [28]: > 100 µM
TGI [29]: > 100 µM
TGI [30]: > 100 µM
TGI [31]: > 100 µM
TGI [32]: > 100 µM
TGI [33]: > 100 µM
TGI [34]: > 100 µM
TGI [35]: > 100 µM
TGI [36]: > 100 µM
TGI [37]: > 100 µM
TGI [38]: > 100 µM
TGI [39]: > 100 µM
TGI [40]: > 100 µM
TGI [41]: > 100 µM
TGI [42]: > 100 µM
TGI [43]: > 100 µM
TGI [44]: > 100 µM
TGI [45]: > 100 µM
TGI [46]: > 100 µM
TGI [47]: > 100 µM
TGI [48]: > 100 µM
TGI [49]: > 100 µM
TGI [50]: > 100 µM
TGI [51]: > 100 µM
TGI [52]: > 100 µM
TGI [53]: > 100 µM
TGI [54]: > 100 µM
TGI [55]: > 100 µM
TGI [56]: > 100 µM
TGI [57]: > 100 µM

N=c1sc2ccccc2n1CCS (tested in a mixture with another compound)
TGI [1]: 35.9 µM
TGI [2]: 40.9 µM
TGI [3]: 42 µM
TGI [58]: 45.4 µM
TGI [4]: 32.3 µM
TGI [5]: 53.6 µM
TGI [6]: 30.5 µM
TGI [7]: 37.3 µM
TGI [8]: 35.3 µM
TGI [9]: 30.6 µM
TGI [10]: 26.9 µM
TGI [11]: 28 µM
TGI [12]: > 100 µM
TGI [13]: 35.5 µM
TGI [15]: 19.3 µM
TGI [16]: 46 µM
TGI [17]: 57.3 µM
TGI [18]: 37.1 µM
TGI [19]: 41.4 µM
TGI [20]: 44.7 µM
TGI [21]: 27.5 µM
TGI [22]: 48.4 µM
TGI [23]: 25.8 µM
TGI [24]: 66.9 µM
TGI [25]: 36.3 µM
TGI [26]: 30.8 µM
TGI [27]: 30.5 µM
TGI [28]: 46.9 µM
TGI [29]: 25.6 µM
TGI [30]: > 100 µM
TGI [31]: 45.8 µM
TGI [32]: 62.3 µM
TGI [33]: 37.6 µM
TGI [34]: 45.3 µM
TGI [35]: 38.4 µM
TGI [36]: 48.5 µM
TGI [37]: 59.4 µM
TGI [38]: 8.45 µM
TGI [39]: 31.7 µM
TGI [40]: > 100 µM
TGI [41]: 27.5 µM
TGI [42]: 27.5 µM
TGI [43]: 34.6 µM
TGI [44]: > 100 µM
TGI [59]: 33.2 µM
TGI [46]: > 100 µM
TGI [47]: 45.5 µM
TGI [48]: > 100 µM
TGI [49]: 35.8 µM
TGI [50]: 49.1 µM
TGI [51]: 48.6 µM
TGI [52]: 29.1 µM
TGI [53]: 45.8 µM
TGI [54]: 39.8 µM
TGI [55]: 31.8 µM
TGI [56]: > 100 µM
TGI [57]: 37.6 µM
